{"source": "patent US20250127790A1", "about": "“COMBINATION THERAPY USING VPS34 INHIBITORS” (Deciphera Pharmaceuticals, LLC, priority 2021, published 2025)", "key": {"[1]": {"system": "Renca renal cell carcinoma cells", "test": "qRT-PCR, combination with ADU-S100, Renca cells", "assay_type": "cell-based, Mouse", "conditions": "for IFNB1 mRNA expression: 2 μM Compound 1, 10 μM ADU-S100, 4 h; for CCL5 mRNA expression / CXCL10 mRNA expression: 2 μM Compound 1, 10 μM ADU-S100, 24 h; for increase in IFNB1, CCL5 and CXCL10 with siRNA knockdown of STING: siSTING", "experimental": "Renca cells were grown in RPMI-1640 medium containing 10% fetal bovine serum. Cells were then incubated for 2 days at 37 degrees Celsius, 5% CO2, and 95% humidity. Renca cells were reversely transfected with scrambled siRNA control (siSCR) or siRNA targeting STING (siSTING). After transfection for 48 h, cells were treated with DMSO control, 2 μM Compound 1 or 2 μM Compound 2 in combination with 10 μM ADU-S100 for 4 h (for Ifnb1) or 24 h (Ccl5 and Cxcl10). Cells were washed with PBS and RNA was isolated using the PureLink RNA kit (#12183018A, Thermo Fisher Scientific) according to the manufacturer's protocol. Genomic DNA was removed using DNA-binding columns (RNeasy plus kit, #74134, Qiagen) and/or DNase treatment (#12185010, Thermo Fisher Scientific). RNA was quantified using NanoDrop (Thermo Fisher Scientific) and 50 ng/μL RNA was used for cDNA synthesis with SuperScript IV VILO Master Mix (#11756050, Thermo Fisher Scientific). Quantitative RT-PCR (qRT-PCR) was run with diluted cDNA (1:25 or 1:12.5), PowerUp SYBR Green Master Mix (#A25741, Thermo Fisher Scientific), and 200 nM primers (see below) on a CFX Connect RT-PCR system (BioRad). Data was analyzed using the ΔΔCT method. Results are mean±SEM of three independent experiments."}, "[2]": {"system": "Renca renal cell carcinoma cells", "test": "IncuCyte live-cell imaging, Caspase 3/7 activity, Renca cells", "assay_type": "cell-based", "conditions": "2 μM Compound 1, ADU-S100, 24 hours", "experimental": "Renca cells were treated with a combination of DMSO or 2 μM Compound 1 alone or in combination with STING agonist ADU-S100 for 24 hours. Treatment with 1 μM staurosporine was used as a positive control for apoptosis induction. To assess cell proliferation, 1000 cells/well were plated in 96-well plates. After 24 h, cells were treated with compounds in 100 μL complete medium. Phase-contrast images (10×) were acquired every 3 h for 24-72 h and cell confluence (%) was calculated using the IncuCyte S3 live-cell analysis system (Sartorius). For monitoring apoptosis, 5 μM of IncuCyte Caspase-3/7 Green Dye (#4440, Sartorius) was added to the medium at the time of treatment. Both phase-contrast and green fluorescent images were captured. Caspase 3/7 induction was calculated by counting green fluorescent objects per mm^2 and dividing it by the percentage of cell confluency."}, "[3]": {"system": "786-O renal cell carcinoma cells", "test": "Western blot, STING pathway proteins with siRNA knockdown, 786-O cells", "assay_type": "cell-based", "conditions": "24 h; for CGAS level / STING level / p-IRF3 level / p-STAT1 level / p-TKB1 level / p-IRF3 and p-STAT1 levels with siRNA knockdown of CGAS / p-TKB1 level with siRNA knockdown of CGAS / p-IRF3 and p-STAT1 levels with siRNA knockdown of STING / p-TBK1 level with siRNA knockdown of STING: 2 μM; for CGAS level / STING level / p-IRF3 level / p-STAT1 level / p-TKB1 level: vs DMSO alone; for p-IRF3 and p-STAT1 levels with siRNA knockdown of CGAS / p-TKB1 level with siRNA knockdown of CGAS: siCGAS; for p-IRF3 and p-STAT1 levels with siRNA knockdown of CGAS / p-TKB1 level with siRNA knockdown of CGAS / p-IRF3 and p-STAT1 levels with siRNA knockdown of STING / p-TBK1 level with siRNA knockdown of STING: vs compound alone; for p-IRF3 and p-STAT1 levels with siRNA knockdown of STING / p-TBK1 level with siRNA knockdown of STING: siSTING; for STING level with siRNA knockdown of TBK1 / CGAS level with siRNA knockdown of TBK1: siTBK1, 2 μM; for CGAS level with siRNA knockdown of TBK1: vs DMSO", "experimental": "786-O cells were transfected with scrambled siRNA control (siSCR) or siRNA targeting TBK1 (siTBK1), STING (siSTING) or CGAS (siCGAS). After 48 h cells were treated with DMSO or 2 μM of VPS34 inhibitor (Compound 1 or Compound 2) for 24 h. 786-O cells were washed in PBS and lysed in RIPA buffer (50 mM Tris HCl pH=7.4, 150 mM NaCl, 1% Triton X-100, 0.5% Na-deoxycholate, 0.1% SDS) containing protease inhibitor cocktail (#11836170001, Roche), and phosphatase inhibitor (#11836170001, Roche) for 10 min at 4° C. After centrifugation at 15000 rpm for 10 min at 4° C., the supernatant was obtained, and protein concentration was quantified using BCA assay (#23225, Thermo Fisher). Equal amounts were mixed with 0.1 M DTT and LDS Sample Buffer (#84788, Thermo Fisher), heated for 5 min at 90° C. before loading onto 4-12% Bis-Tris gels. Proteins were transferred to nitrocellulose membranes. Membranes were blocked in 5% non-fat dry milk in TBS with 0.05% Tween (TBS-T) for 1 h at RT, washed in TBS-T, and probed with primary antibodies shaking overnight at 4° C. After washing in TBS-T, membranes were incubated with IRDye 800CW goat anti-rabbit or IRDye 680RD donkey anti-mouse IgG (H+L) (#926-32211 and #926-68072, respectively, LI-COR, 1:10,000 dilution) secondary antibody in Intercept blocking buffer (#927-60001, LI-COR) for 1 h at RT. After washing in TBS-T, membranes were imaged using the Odyssey CLx (LI-COR). Band intensities were quantified using Image Studio Lite software version 5.2.5 (LI-COR)."}, "[4]": {"system": "786-O renal cell carcinoma cells", "test": "Cytokine secretion assay (MSD) with siRNA knockdown, 786-O cells", "assay_type": "cell-based, human", "conditions": "24 h; for CCL5 and CXCL10 secretion with siRNA knockdown of CGAS: siCGAS; for CCL5 and CXCL10 secretion with siRNA knockdown of CGAS / increase in CCL5 protein secretion / increase in CXCL10 protein secretion / CCL5 and CXCL10 protein secretion with siRNA knockdown of STING: 2 μM; for CCL5 and CXCL10 secretion with siRNA knockdown of CGAS / CCL5 and CXCL10 protein secretion with siRNA knockdown of STING / secretion of CCL5 or CXCL10 with siRNA knockdown of TBK1: vs compound alone; for increase in CCL5 protein secretion / increase in CXCL10 protein secretion: siRNA against non-specific controls (siSCR); for CCL5 and CXCL10 protein secretion with siRNA knockdown of STING: siSTING; for secretion of CCL5 or CXCL10 with siRNA knockdown of TBK1: siTBK1, 2 μM", "experimental": "786-O cells were transfected with scrambled siRNA control (siSCR) or siRNA targeting TBK1 (siTBK1), STING (siSTING) or CGAS (siCGAS). After 48 h cells were treated with DMSO or 2 μM of VPS34 inhibitor (Compound 1 or Compound 2) for 24 h. Cell culture medium was centrifuged at 1600 rpm for 10 min at 4° C. and obtained supernatant stored at −80° C. Cytokine levels were quantified using following Meso Scale Discovery (MSD) assays: human R-PLEX RANTES/CCL5 (#F21ZN), U-PLEX CXCL10/IP-10 (#K151UFK). Assays were run on the SECTOR Quickplex Imager and analyzed using Discovery Workbench version 4.0 (MSD)."}}}
{"compound": "Nc1ncnc2c1ncn2[C@@H]1O[C@@H]2COP(=O)([S-])O[C@@H]3[C@H](O)[C@@H](COP([O-])(=S)O[C@H]2[C@H]1O)O[C@H]3n1cnc2c(N)ncnc21.[Na+].[Na+]", "note": "(stereo partly drawn) [ADU-S100, reference compound]", "values": [{"measurement": "IFNB1 mRNA expression", "setting": "[1]", "value": "increased"}, {"measurement": "CCL5 mRNA expression", "setting": "[1]", "value": "increased"}, {"measurement": "CXCL10 mRNA expression", "setting": "[1]", "value": "increased"}, {"measurement": "increase in IFNB1, CCL5 and CXCL10 with siRNA knockdown of STING", "setting": "[1]", "value": "blocked"}, {"measurement": "Caspase 3/7 activity", "setting": "[2]", "value": "mild effects"}]}
{"compound": "C[C@@H]1COCCN1c1cc(N2CCCC[C@@H]2C(F)(F)F)[nH]c(=O)c1", "note": "[Compound 1, 4-((R)-3-methylmorpholino)-6-((R)-2-(trifluoromethyl)piperidin-1-yl)pyridin-2(1H)-one]", "values": [{"measurement": "CGAS level", "setting": "[3]", "value": "mild increase"}, {"measurement": "STING level", "setting": "[3]", "value": "increase"}, {"measurement": "p-IRF3 level", "setting": "[3]", "value": "strong increases"}, {"measurement": "p-STAT1 level", "setting": "[3]", "value": "strong increases"}, {"measurement": "p-TKB1 level", "setting": "[3]", "value": "increase"}, {"measurement": "p-IRF3 and p-STAT1 levels with siRNA knockdown of CGAS", "setting": "[3]", "value": "complete loss"}, {"measurement": "p-TKB1 level with siRNA knockdown of CGAS", "setting": "[3]", "value": "decrease"}, {"measurement": "p-IRF3 and p-STAT1 levels with siRNA knockdown of STING", "setting": "[3]", "value": "complete loss"}, {"measurement": "p-TBK1 level with siRNA knockdown of STING", "setting": "[3]", "value": "decrease"}, {"measurement": "STING level with siRNA knockdown of TBK1", "setting": "[3]", "value": "increase"}, {"measurement": "CGAS level with siRNA knockdown of TBK1", "setting": "[3]", "value": "increase"}, {"measurement": "CCL5 and CXCL10 secretion with siRNA knockdown of CGAS", "setting": "[4]", "value": "near complete ablation"}, {"measurement": "increase in CCL5 protein secretion", "setting": "[4]", "value": "~2", "unit": "fold"}, {"measurement": "increase in CXCL10 protein secretion", "setting": "[4]", "value": "~2", "unit": "fold"}, {"measurement": "CCL5 and CXCL10 protein secretion with siRNA knockdown of STING", "setting": "[4]", "value": "near complete ablation"}, {"measurement": "secretion of CCL5 or CXCL10 with siRNA knockdown of TBK1", "setting": "[4]", "value": "decreased secretion"}, {"measurement": "IFNB1 mRNA expression", "setting": "[1]", "value": "did not significantly increase"}, {"measurement": "CCL5 mRNA expression", "setting": "[1]", "value": "did increase"}, {"measurement": "CXCL10 mRNA expression", "setting": "[1]", "value": "did increase"}, {"measurement": "increase in IFNB1, CCL5 and CXCL10 with siRNA knockdown of STING", "setting": "[1]", "value": "blocked"}, {"measurement": "Caspase 3/7 activity", "setting": "[2]", "value": "increased"}]}
{"compound": "C[C@@H]1COCCN1c1cc(=O)n2c(n1)N(Cc1cncc(Cl)c1)[C@H](C(F)(F)F)CC2", "note": "[Compound 2, (S)-9-((5-chloropyridin-3-yl)methyl)-2-((R)-3-methylmorpholino)-8-(trifluoromethyl)-6,7,8,9-tetrahydro-4H-pyrimido[1,2-a]pyrimidin-4-one]", "values": [{"measurement": "CGAS level", "setting": "[3]", "value": "mild increase"}, {"measurement": "STING level", "setting": "[3]", "value": "increase"}, {"measurement": "p-IRF3 level", "setting": "[3]", "value": "strong increases"}, {"measurement": "p-STAT1 level", "setting": "[3]", "value": "strong increases"}, {"measurement": "p-TKB1 level", "setting": "[3]", "value": "increase"}, {"measurement": "p-IRF3 and p-STAT1 levels with siRNA knockdown of CGAS", "setting": "[3]", "value": "complete loss"}, {"measurement": "p-TKB1 level with siRNA knockdown of CGAS", "setting": "[3]", "value": "decrease"}, {"measurement": "p-IRF3 and p-STAT1 levels with siRNA knockdown of STING", "setting": "[3]", "value": "complete loss"}, {"measurement": "p-TBK1 level with siRNA knockdown of STING", "setting": "[3]", "value": "decrease"}, {"measurement": "STING level with siRNA knockdown of TBK1", "setting": "[3]", "value": "increase"}, {"measurement": "CGAS level with siRNA knockdown of TBK1", "setting": "[3]", "value": "increase"}, {"measurement": "CCL5 and CXCL10 secretion with siRNA knockdown of CGAS", "setting": "[4]", "value": "near complete ablation"}, {"measurement": "increase in CCL5 protein secretion", "setting": "[4]", "value": "~2", "unit": "fold"}, {"measurement": "increase in CXCL10 protein secretion", "setting": "[4]", "value": "~2", "unit": "fold"}, {"measurement": "CCL5 and CXCL10 protein secretion with siRNA knockdown of STING", "setting": "[4]", "value": "near complete ablation"}, {"measurement": "secretion of CCL5 or CXCL10 with siRNA knockdown of TBK1", "setting": "[4]", "value": "decreased secretion"}]}
